Measured values reported in ChEMBL document CHEMBL5543092, “Design, synthesis, and biological characterization of proteolysis targeting chimera (PROTACs) for the ataxia telangiectasia and RAD3-related (ATR) kinase” (Eur J Med Chem, 2024).
The source made the active and inactive calls. The rule behind the calls is not given here.

Key:
[1] = Chemical stability of the compound in at pH 7.4 measured at 48 hrs by HPLC based non-enzymatic stability assay; format: physicochemical; conditions: buffer, read-out: Stability
[2] = Chemical stability of the compound in at pH 7.4 measured at 72 hrs by HPLC based non-enzymatic stability assay; format: physicochemical; conditions: buffer, read-out: Stability
[3] = Chemical stability of the compound in at pH 7.4 measured at 6 hrs by HPLC based non-enzymatic stability assay; format: physicochemical; conditions: buffer, read-out: Stability
HEK293 = assay: Cytotoxicity against human HEK293 cells assessed as cell viability at 50 uM incubated for 24 hrs by Alamar Blue reagent based assay relative to control; format: functional; conditions: read-out: Activity
[4] = Chemical stability of the compound in at pH 7.4 measured at 24 hrs by HPLC based non-enzymatic stability assay; format: physicochemical; conditions: buffer, read-out: Stability
[5] = target: T1, Protein cereblon/Serine/threonine-protein kinase ATR (Homo sapiens) (UniProt Q13535+Q96SW2); assay: PROTAC activity at ATR/CRBN in patient derived human MIA PaCa-2 cells assessed as reduction in protein level at 0.1 to 5 uM measured after 24 hrs by immunoblot analysis relative to untreated control; format: cell-based; conditions: dose 0.1-5 µM
[6] = Chemical stability of the compound in at pH 7.4 measured at 12 hrs by HPLC based non-enzymatic stability assay; format: physicochemical; conditions: buffer, read-out: Stability
[7] = target: T2, von Hippel-Lindau disease tumor suppressor/Serine/threonine-protein kinase ATR (Homo sapiens) (UniProt Q13535+P40337); assay: PROTAC activity at ATR/VHL in patient derived human MIA PaCa-2 cells assessed as protein degradation at 2 uM measured after 24 hrs by immunoblot analysis relative to untreated control; format: cell-based
[8] = target: T2, von Hippel-Lindau disease tumor suppressor/Serine/threonine-protein kinase ATR (Homo sapiens); assay: PROTAC activity at ATR/VHL in patient derived human MIA PaCa-2 cells assessed as protein degradation at 5 uM measured after 24 hrs by immunoblot analysis relative to untreated control; format: cell-based
MIA PaCa-2 [9] = assay: Induction of […] degradation in patient derived human MIA PaCa-2 cells assessed as reduction in protein level at 2 uM measured after 24 hrs by immunoblot analysis; format: functional, cell-based
[10] = target: T1, Protein cereblon/Serine/threonine-protein kinase ATR (Homo sapiens); assay: PROTAC activity at ATR/CRBN in patient derived human MIA PaCa-2 cells assessed as reduction in protein level at 5 uM measured after 24 hrs by immunoblot analysis relative to untreated control; format: cell-based; set-up: scale not given: the % may be the effect or the level left
MIA PaCa-2 [11] = assay: Effect on CRBN expression in patient derived siCRBN transfected human MIA PaCa-2 cells at 5 uM measured after 24 hrs by immunoblot analysis; format: functional, cell-based

T2 sequence (P40337 whole entry, looked up): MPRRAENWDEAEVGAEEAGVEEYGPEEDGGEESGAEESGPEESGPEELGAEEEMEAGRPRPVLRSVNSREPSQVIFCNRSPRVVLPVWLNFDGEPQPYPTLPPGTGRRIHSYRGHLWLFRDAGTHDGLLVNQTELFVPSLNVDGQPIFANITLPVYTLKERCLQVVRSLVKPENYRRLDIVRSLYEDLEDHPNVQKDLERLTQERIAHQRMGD
T2 sequence (Q13535 whole entry, looked up): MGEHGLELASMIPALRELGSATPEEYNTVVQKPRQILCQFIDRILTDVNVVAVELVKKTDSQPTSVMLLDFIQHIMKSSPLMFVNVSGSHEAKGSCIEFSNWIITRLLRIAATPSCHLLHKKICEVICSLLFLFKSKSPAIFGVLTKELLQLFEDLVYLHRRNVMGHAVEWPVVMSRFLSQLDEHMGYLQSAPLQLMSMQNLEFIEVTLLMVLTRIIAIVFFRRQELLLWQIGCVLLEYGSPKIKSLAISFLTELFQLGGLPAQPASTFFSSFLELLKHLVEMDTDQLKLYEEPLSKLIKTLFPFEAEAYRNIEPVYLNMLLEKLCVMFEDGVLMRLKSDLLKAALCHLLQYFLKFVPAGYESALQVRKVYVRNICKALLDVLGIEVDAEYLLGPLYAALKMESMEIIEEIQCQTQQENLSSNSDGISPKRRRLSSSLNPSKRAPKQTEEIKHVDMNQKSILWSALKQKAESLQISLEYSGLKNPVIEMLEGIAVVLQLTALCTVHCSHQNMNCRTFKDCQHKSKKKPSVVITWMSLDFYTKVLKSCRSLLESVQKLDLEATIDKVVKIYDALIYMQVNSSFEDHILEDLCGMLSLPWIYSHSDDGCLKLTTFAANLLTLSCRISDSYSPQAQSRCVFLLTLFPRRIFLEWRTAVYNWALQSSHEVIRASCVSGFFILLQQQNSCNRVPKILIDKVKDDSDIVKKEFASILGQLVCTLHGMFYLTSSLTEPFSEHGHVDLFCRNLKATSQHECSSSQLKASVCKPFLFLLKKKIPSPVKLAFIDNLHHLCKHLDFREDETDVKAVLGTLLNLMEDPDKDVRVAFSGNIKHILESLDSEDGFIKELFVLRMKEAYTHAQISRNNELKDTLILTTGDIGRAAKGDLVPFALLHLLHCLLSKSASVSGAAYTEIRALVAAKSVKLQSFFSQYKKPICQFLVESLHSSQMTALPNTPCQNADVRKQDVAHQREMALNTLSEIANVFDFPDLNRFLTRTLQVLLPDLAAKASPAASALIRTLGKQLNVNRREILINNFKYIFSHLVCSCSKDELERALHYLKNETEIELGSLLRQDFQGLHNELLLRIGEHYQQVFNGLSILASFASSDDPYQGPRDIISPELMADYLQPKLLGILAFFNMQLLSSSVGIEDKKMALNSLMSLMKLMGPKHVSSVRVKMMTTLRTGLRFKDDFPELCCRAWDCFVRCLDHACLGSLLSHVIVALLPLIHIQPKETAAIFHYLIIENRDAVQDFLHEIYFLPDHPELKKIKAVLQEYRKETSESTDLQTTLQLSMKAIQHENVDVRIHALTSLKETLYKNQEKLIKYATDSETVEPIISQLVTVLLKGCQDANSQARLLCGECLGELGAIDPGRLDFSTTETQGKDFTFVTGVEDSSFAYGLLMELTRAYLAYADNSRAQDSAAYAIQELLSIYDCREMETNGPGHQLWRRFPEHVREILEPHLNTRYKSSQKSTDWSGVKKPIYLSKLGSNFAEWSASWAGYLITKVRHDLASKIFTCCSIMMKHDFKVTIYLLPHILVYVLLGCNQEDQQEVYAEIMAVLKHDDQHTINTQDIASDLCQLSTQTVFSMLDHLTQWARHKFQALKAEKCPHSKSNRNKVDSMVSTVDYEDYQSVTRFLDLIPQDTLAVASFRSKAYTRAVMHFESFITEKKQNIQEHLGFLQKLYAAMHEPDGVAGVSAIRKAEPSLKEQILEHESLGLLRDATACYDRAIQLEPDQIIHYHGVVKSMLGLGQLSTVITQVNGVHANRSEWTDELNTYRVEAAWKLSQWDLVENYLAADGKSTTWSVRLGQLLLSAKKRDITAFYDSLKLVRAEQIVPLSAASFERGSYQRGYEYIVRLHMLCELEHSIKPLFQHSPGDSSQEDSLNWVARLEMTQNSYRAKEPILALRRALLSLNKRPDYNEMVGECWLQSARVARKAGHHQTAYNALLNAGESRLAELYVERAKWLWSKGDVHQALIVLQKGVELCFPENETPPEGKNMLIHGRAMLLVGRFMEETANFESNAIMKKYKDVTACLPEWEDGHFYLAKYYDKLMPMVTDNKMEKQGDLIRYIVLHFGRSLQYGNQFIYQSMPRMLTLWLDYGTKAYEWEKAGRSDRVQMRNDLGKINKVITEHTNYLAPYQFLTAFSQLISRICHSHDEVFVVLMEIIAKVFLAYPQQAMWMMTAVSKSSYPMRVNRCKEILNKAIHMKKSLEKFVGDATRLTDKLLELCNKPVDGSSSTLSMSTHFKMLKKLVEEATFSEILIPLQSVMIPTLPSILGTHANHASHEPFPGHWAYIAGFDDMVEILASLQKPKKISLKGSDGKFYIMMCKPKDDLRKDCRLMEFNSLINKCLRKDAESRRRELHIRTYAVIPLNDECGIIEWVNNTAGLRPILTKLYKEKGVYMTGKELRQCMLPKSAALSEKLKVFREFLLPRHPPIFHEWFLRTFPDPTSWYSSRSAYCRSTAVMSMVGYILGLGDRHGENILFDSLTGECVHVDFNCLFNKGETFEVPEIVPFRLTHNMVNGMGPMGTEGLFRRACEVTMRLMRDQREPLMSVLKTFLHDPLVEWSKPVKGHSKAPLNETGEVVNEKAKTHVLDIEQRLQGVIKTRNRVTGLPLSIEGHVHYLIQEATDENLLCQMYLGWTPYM
T1 sequence (Q13535 whole entry, looked up): as above
T1 sequence (Q96SW2 whole entry, looked up): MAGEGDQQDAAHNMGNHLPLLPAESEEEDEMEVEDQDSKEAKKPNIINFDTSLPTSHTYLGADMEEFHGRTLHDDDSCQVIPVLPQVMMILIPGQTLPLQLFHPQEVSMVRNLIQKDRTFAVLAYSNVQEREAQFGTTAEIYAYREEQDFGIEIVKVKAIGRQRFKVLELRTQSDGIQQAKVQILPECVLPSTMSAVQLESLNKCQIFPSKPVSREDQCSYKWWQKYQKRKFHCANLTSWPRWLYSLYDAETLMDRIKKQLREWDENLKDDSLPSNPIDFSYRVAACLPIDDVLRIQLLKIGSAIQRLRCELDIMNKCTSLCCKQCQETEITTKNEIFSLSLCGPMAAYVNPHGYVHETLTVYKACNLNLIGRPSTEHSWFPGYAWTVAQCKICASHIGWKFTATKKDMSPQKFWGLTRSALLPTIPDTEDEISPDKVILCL

With `Nc1ncc(-c2ccc(S(=O)(=O)NCCCCCC(=O)N3CCN(c4cccc(C(=O)NC5CCC(=O)NC5=O)n4)CC3)cc2)nc1C(=O)Nc1ccccc1` (stereo unspecified) the remaining at 48 h [1] was 82%, the remaining at 72 h [2] was 65% and the remaining at 6 h [3] was 102%. For the same compound, the viability at 50 µM (HEK293) was 86.5%, the remaining at 24 h [4] was 97% and the Activity [5] was “inactive”. The remaining at 12 h [6] was 104%.
For `Nc1ncc(-c2ccc(S(=O)(=O)NCCCCC(=O)NCCOc3ccc(C4CCC(=O)NC4=O)cc3)cc2)nc1C(=O)Nc1ccccc1` (stereo unspecified), the remaining at 48 h [1] was 99%, the remaining at 72 h [2] was 99% and the remaining at 6 h [3] was 101%. For the same compound, the viability at 50 µM (HEK293) was 66.4%, the remaining at 24 h [4] was 101% and the Activity [5] was “inactive”. For the same compound, the remaining at 12 h [6] was 101%.
`Cc1ncsc1-c1ccc(CNC(=O)[C@@H]2C[C@@H](O)CN2C(=O)[C@@H](NC(=O)CCOCCOCCNS(=O)(=O)c2ccc(-c3cnc(N)c(C(=O)Nc4ccccc4)n3)cc2)C(C)(C)C)cc1` gave a remaining at 48 h [1] of 101%, a remaining at 72 h [2] of 102% and a remaining at 6 h [3] of 100%. For the same compound, the viability at 50 µM (HEK293) was 44.5%, the Activity [7] was “inactive” and the remaining at 24 h [4] was 101%. For the same compound, the Activity [8] was “inactive” and the remaining at 12 h [6] was 100%.
In the case of `Cc1ncsc1-c1ccc(CNC(=O)[C@@H]2C[C@@H](O)CN2C(=O)[C@@H](NC(=O)CCCCCNS(=O)(=O)c2ccc(-c3cnc(N)c(C(=O)Nc4ccccc4)n3)cc2)C(C)(C)C)cc1`, the remaining at 48 h [1] is reported as 100%, the remaining at 72 h [2] is reported as 100% and the remaining at 6 h [3] is reported as 99%. For the same compound, the viability at 50 µM (HEK293) was 60.3%, the Activity [7] was “inactive” and the remaining at 24 h [4] was 100%. The Activity [8] was “inactive” and the remaining at 12 h [6] was 99%.
For `CS(=O)(=O)c1ccc(-c2cnc(N)c(C(=O)Nc3ccccc3)n2)cc1`, the Activity (MIA PaCa-2 [9]) was “inactive”.
Work on `Nc1ncc(-c2ccc(S(=O)(=O)NCCCCCC(=O)N3CCN(c4ccc5c(c4)C(=O)N(C4CCC(=O)NC4=O)C5=O)CC3)cc2)nc1C(=O)Nc1ccccc1` (stereo unspecified) yielded a remaining at 48 h [1] of 87%, a remaining at 72 h [2] of 72% and a remaining at 6 h [3] of 101%. For the same compound, the viability at 50 µM (HEK293) was 96%, the remaining at 24 h [4] was 96% and the Activity [10] was 40%. The remaining at 12 h [6] was 101%.
For `CCc1c2c(nc3ccc(OC(=O)N4CCC(N5CCCCC5)CC4)cc13)-c1cc3c(c(=O)n1C2)COC(=O)[C@]3(O)CC`, the Activity (MIA PaCa-2 [11]) was “inactive”.
With `Nc1ncc(-c2ccc(S(=O)(=O)NCCCCCCCC(=O)NCCOc3ccc(C4CCC(=O)NC4=O)cc3)cc2)nc1C(=O)Nc1ccccc1` (stereo unspecified) the remaining at 48 h [1] was 100%, the remaining at 72 h [2] was 100% and the remaining at 6 h [3] was 100%. The viability at 50 µM (HEK293) was 62.9%, the remaining at 24 h [4] was 100% and the Activity [5] was “inactive”. The remaining at 12 h [6] was 99%.
